# Tested on: gut microbiota of nonalcoholic fatty liver mice
# Assay: Gut microbiota analysis (full-length 16S sequencing) in nonalcoholic fatty liver mice
# Format: in vivo, C57BL/6J mice
# Conditions: compared with the HFD group; L008, H008 and Msol groups; FIG. 9
# Description: The experiment used 7-week-old male C57BL/6J strain mice purchased from the National Laboratory Animal Center. The initial body weight was about 23 g, with 12 mice per group. They were housed at 60% relative humidity, room temperature 25±1° C., with a 12-hour light cycle (8:00-20:00). The experiment lasted for 22 weeks, during which food and water were provided ad libitum. Body weight, food intake, and water consumption were measured weekly.
# Embodiment 4 uses a high-fat feed to induce a nonalcoholic fatty liver animal model. The animal experiment lasted for 22 weeks. Animal test feed was prepared according to the formula of Research Diets (New Brunswick, NJ, USA) for D12450B and D12492. The grouping is as follows: • i. […]
# Total genomic DNA was extracted from samples (QIAamp PowerFecal DNA, Qiagen). DNA concentration was determined using a Qubit 4.0 fluorometer (Thermo Scientific) and adjusted to 1 ng/μL. […] PCR reactions were performed using KAPA HiFi HotStart ReadyMix (Roche): 95° C., 3 minutes; 20-27 cycles (sample-dependent): 95° C., 30 seconds, 57° C., 30 seconds, 72° C., 60 seconds; 72° C. for 5 minutes, and final storage at 4° C. PCR products were monitored on 1% agarose gel. […]
# Sample data were demultiplexed from the raw data based on Barcode sequences and PCR amplification primer sequences. […] The sequences with primers removed were used as QIIME2 DADA2 Input Reads. […]
substance,measurement,value
Monascinol [Msol],microbial population (abundance) of Blautia in the intestine,increase
same,microbial population (abundance) of Intestinimonas in the intestine,increase
